ChEMBL document CHEMBL1130322, “Anticancer and antiviral effects and inactivation of S-adenosyl-L-homocysteine hydrolase with 5'-carboxaldehydes and oximes synthesized from adenosine and sugar-modified analogues” (J Med Chem, 1997)
In brackets after ≈: the same amount, converted by molar mass.

Legend:
[1] = tested on: HEL; assay: 50% Cytostatic concentration required to inhibit human erythroleukemic (HEL) cell proliferation; type: functional; set-up: unit not given here
[2] = tested on: Vero; assay: cells; conditions: Chlorocebus sabaeus
[3] = tested on: Vero; assay: cells; conditions: Chlorocebus sabaeus; remark: listed apart in the source
[4] = tested on: L1210; assay: cells; conditions: Mus musculus
[5] = tested on: Human betaherpesvirus 5; assay: microbe, parasite or virus in culture
[6] = tested on: Vero; assay: cells; conditions: Chlorocebus sabaeus; remark: listed apart in the source
[7] = tested on: Vero; assay: cells; conditions: Chlorocebus sabaeus; remark: listed apart in the source
[8] = tested on: Human alphaherpesvirus 2; assay: microbe, parasite or virus in culture
[9] = tested on: CCRF-CEM; assay: cells; conditions: Homo sapiens
[10] = tested on: Human betaherpesvirus 5; assay: microbe, parasite or virus in culture; remark: listed apart in the source
[11] = tested on: FM3A; assay: cells; conditions: Mus musculus
[12] = tested on: Human alphaherpesvirus 1; assay: microbe, parasite or virus in culture
[13] = tested on: Human alphaherpesvirus 1; assay: microbe, parasite or virus in culture; remark: listed apart in the source
[14] = tested on: E6SM; assay: Minimum inhibitory concentration required to effect a microscopically visible change of cell morphology in human embryonic skin-muscle (E6SM) cell culture.; type: functional; set-up: unit not given here
[15] = tested on: Vero; assay: cells; conditions: Chlorocebus sabaeus; remark: listed apart in the source
[16] = tested on: Human alphaherpesvirus 1; assay: microbe, parasite or virus in culture; remark: listed apart in the source
[17] = tested on: Vaccinia virus
[18] = tested on: MOLT-4; assay: cells; conditions: Homo sapiens
[19] = tested on: Human alphaherpesvirus 1; assay: microbe, parasite or virus in culture; remark: listed apart in the source
[20] = tested on: Human alphaherpesvirus 1; assay: microbe, parasite or virus in culture; remark: listed apart in the source
[21] = target: T1, Adenosylhomocysteinase (Homo sapiens, UniProt P23526)
Target sequence in this assay (P23526 2-432 limits assumed): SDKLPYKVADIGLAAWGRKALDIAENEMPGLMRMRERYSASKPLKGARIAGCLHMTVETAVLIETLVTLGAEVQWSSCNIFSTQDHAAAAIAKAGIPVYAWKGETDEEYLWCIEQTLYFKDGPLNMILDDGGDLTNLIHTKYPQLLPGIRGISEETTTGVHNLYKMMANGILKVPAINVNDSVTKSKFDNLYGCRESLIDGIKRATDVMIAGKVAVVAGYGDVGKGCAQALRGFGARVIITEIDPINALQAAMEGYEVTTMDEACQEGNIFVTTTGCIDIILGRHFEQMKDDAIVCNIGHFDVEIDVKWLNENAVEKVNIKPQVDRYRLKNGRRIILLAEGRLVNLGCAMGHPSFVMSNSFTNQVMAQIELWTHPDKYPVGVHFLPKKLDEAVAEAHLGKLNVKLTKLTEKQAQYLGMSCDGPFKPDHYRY

[22] = target: T1, Adenosylhomocysteinase; remark: listed apart in the source
Target sequence in this assay (P23526 whole entry): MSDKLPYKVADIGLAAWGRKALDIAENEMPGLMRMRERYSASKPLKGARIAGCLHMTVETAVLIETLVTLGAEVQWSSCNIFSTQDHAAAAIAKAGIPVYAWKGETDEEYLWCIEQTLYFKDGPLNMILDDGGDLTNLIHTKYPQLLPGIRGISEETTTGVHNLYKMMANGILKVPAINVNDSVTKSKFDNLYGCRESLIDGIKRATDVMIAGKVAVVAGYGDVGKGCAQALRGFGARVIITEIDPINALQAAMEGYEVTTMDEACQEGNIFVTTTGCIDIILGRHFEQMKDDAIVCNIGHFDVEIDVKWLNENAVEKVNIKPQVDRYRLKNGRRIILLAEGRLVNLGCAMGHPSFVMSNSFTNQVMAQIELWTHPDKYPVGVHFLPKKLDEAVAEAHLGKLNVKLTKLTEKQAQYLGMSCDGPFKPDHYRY

[23] = tested on: HeLa; assay: Minimum inhibitory concentration required to effect a microscopically visible change of cell morphology in HeLa cell culture.; type: functional, Homo sapiens; set-up: unit not given here
[24] = tested on: Vero; assay: Minimum inhibitory concentration required to effect a microscopically visible change of cell morphology in Vero cell culture.; type: functional, Chlorocebus sabaeus; set-up: unit not given here
[25] = tested on: Vero; assay: cells; conditions: Chlorocebus sabaeus; remark: listed apart in the source
[26] = tested on: MDCK; type: functional, Canis lupus familiaris; set-up: unit not given here
[27] = tested on: MDCK; assay: cells; conditions: Canis lupus familiaris
[28] = tested on: HeLa; assay: cells; conditions: Homo sapiens
[29] = tested on: MDCK; assay: cells; conditions: Canis lupus familiaris; remark: listed apart in the source
[30] = tested on: Respiratory syncytial virus; assay: microbe, parasite or virus in culture; conditions: human respiratory syncytial virus, HeLa
[31] = tested on: HeLa; assay: cells; conditions: Homo sapiens; remark: listed apart in the source

Row | SMILES | CC50 [1] | EC50 [2] [µg/mL] | EC50 [3] [µg/mL] | IC50 [4] [µg/mL] | EC50 [5] [µg/mL] | EC50 [6] [µg/mL] | EC50 [7] [µg/mL] | EC50 [8] [µg/mL] | IC50 [9] [µg/mL] | EC50 [10] [µg/mL] | IC50 [11] [µg/mL] | MIC [14] | EC50 [15] [µg/mL] | EC50 [16] [µg/mL] | EC50 [17] [µg/mL] | IC50 [18] [µg/mL] | EC50 [19] [µg/mL] | EC50 [20] [µg/mL] | also measured
1 | Nc1ncnc2c1ncn2C1O[C@H](C(O)O)[C@@H](O)[C@@H]1O (stereo partly drawn) | >50 | > 200 | > 400 | 156 (≈ 551 µM) | > 40 | > 200 | 300 (≈ 1060 µM) | > 400 | 118 (≈ 417 µM) | > 40 | 125 (≈ 441 µM) | >400 | 150 (≈ 530 µM) | 300 (≈ 1060 µM) | 20 (≈ 70.6 µM) | > 200 |  |  | EC50 [12]: > 400 µg/mL; EC50 [13]: > 400 µg/mL
2 | Nc1ncnc2c1ncn2C[C@H](O)CO [(S)-DHPA] |  | > 400 | 20 (≈ 95.6 µM) |  |  | > 400 | 70 (≈ 335 µM) | > 400 |  |  |  | >400 | 70 (≈ 335 µM) | > 400 | 20 (≈ 95.6 µM) |  | > 40 | > 400 | 
3 | Nc1ncnc2c1ncn2[C@@H]1O[C@@H](C=O)[C@@H](O)[C@H]1O |  |  |  |  |  |  |  |  |  |  |  |  |  |  |  |  |  |  | k2 [21]: 0.22 min⁻¹; Ki [22]: 43 nM
4 | Nc1ncnc2c1ncn2C1O[C@H](/C=N/OCc2ccccc2)[C@@H](O)[C@H]1O (stereo partly drawn) | 33 | > 100 | > 40 | 187 (≈ 505 µM) | > 10 | > 100 | > 100 | > 40 | 136 (≈ 367 µM) | > 10 | 340 (≈ 918 µM) | 100 | > 100 | > 40 | 2 (≈ 5.4 µM) | 118 (≈ 319 µM) | > 40 | > 40 | MIC [23]: >200; k2 [21]: 0.036 min⁻¹; MIC [24]: >200; EC50 [25]: > 100 µg/mL; Ki [22]: 101 nM; MIC [26]: 100; EC50 [27]: 20 µg/mL (≈ 54 µM); EC50 [28]: > 200 µg/mL; EC50 [29]: 20 µg/mL (≈ 54 µM); EC50 [30]: > 200 µg/mL; EC50 [31]: > 200 µg/mL
5 | Nc1ncnc2c1ncn2C1CC(O)C(/C=N/O)O1 (stereo not drawn) | 14 | > 100 | > 100 | 4.6 (≈ 17.4 µM) | 0.6 (≈ 2.27 µM) | > 100 | > 100 | > 100 | 13.8 (≈ 52.2 µM) | 1 (≈ 3.78 µM) | 11.2 (≈ 42.4 µM) | 200 | > 100 | > 100 | > 100 | 17 (≈ 64.3 µM) | > 100 | > 100 | 
6 | Nc1ncnc2c1ncn2[C@@H]1O[C@@H](C=NO)[C@@H](O)[C@H]1O |  |  |  |  |  |  |  |  |  |  |  |  |  |  |  |  |  |  | k2 [21]: 0.13 min⁻¹; Ki [22]: 224 nM
7 | Nc1ncnc2c1ncn2[C@@H]1O[C@H](C=O)[C@@H](O)[C@H]1O | >50 | > 200 | 300 (≈ 1130 µM) | 9.71 (≈ 36.6 µM) | > 40 | > 200 | > 200 | > 400 | 7.3 (≈ 27.5 µM) | > 40 | 15 (≈ 56.6 µM) | >400 | > 200 | > 400 | 70 (≈ 264 µM) | 41.5 (≈ 156 µM) | > 400 | > 400 | 
8 | Nc1ncnc2c1ncn2C1OC(/C=N/O)CC1O (stereo not drawn) | >50 | > 400 | > 400 | 180 (≈ 681 µM) | 10 (≈ 37.8 µM) | > 400 | 300 (≈ 1140 µM) | > 400 | 185 (≈ 700 µM) | 40 (≈ 151 µM) | > 200 | >400 | > 400 | > 400 | 300 (≈ 1140 µM) | > 200 | > 400 | > 400 | 
9 | Nc1ccnc2c1ncn2[C@@H]1O[C@H](CO)[C@@H](O)[C@H]1O |  | 4 (≈ 15 µM) | 0.7 (≈ 2.63 µM) |  |  | > 400 | 4 (≈ 15 µM) | > 400 |  |  |  | >400 | 0.2 (≈ 0.751 µM) | > 400 | 0.7 (≈ 2.63 µM) |  | 40 (≈ 150 µM) | > 400 | 
10 | Nc1ncnc2c1ncn2C1OC(C=O)CC1O (stereo not drawn) | >50 | > 200 | > 400 | > 200 | > 40 | > 200 | > 200 | > 400 | > 200 | > 40 | > 200 | >400 | > 400 | > 400 | > 400 | > 200 | > 400 | > 100 | 
11 | Nc1ncnc2c1ncn2C1CC(O)C(C=O)O1 (stereo not drawn) | >50 | > 200 | > 400 | 6.64 (≈ 26.6 µM) | > 40 | > 200 | > 200 | > 400 | 17.8 (≈ 71.4 µM) | > 40 | 50.9 (≈ 204 µM) | >400 | 70 (≈ 281 µM) | > 400 | > 400 | 4.96 (≈ 19.9 µM) | > 400 | > 400 | 
